Measurements as given in patent US8853230B2, “Inhibitors of JAK” (Portola Pharmaceuticals, Inc., priority 2009, dated 2014).
pIC50: −log10 of the molar value.

Experiments:
JAK3 = molecular target: T1, JAK3 (Homo sapiens, UniProt P52333); experiment: Z'-LYTE kinase assay, JAK3 tyrosine phosphorylation activity; type: biochemical
T1 construct: 5 μl of catalytic domain recombinant Kinase enzyme+Tyr peptide substrate (Invitrogen, Calif.); purchased Invitrogen
Summary of the method: (§1)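 Compounds are serially diluted 1:10 in DMSO and tested in duplicate at 1% final DMSO. Each recombinant catalytic domain phosphorylates the Tyr6 FRET peptide with ATP for 1 h at room temperature, then a site-specific protease cleaves unphosphorylated peptide over 1 h before coumarin/fluorescein emission is read.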

TYK2 = molecular target: T2, TYK2 (Homo sapiens, UniProt P29597); experiment: Z'-LYTE kinase assay, TYK2 tyrosine phosphorylation activity; type: biochemical
T2 construct: 5 μl of catalytic domain recombinant Kinase enzyme+Tyr peptide substrate (Invitrogen, Calif.); purchased Invitrogen
T2 sequence (P29597 897-1176 limits assumed): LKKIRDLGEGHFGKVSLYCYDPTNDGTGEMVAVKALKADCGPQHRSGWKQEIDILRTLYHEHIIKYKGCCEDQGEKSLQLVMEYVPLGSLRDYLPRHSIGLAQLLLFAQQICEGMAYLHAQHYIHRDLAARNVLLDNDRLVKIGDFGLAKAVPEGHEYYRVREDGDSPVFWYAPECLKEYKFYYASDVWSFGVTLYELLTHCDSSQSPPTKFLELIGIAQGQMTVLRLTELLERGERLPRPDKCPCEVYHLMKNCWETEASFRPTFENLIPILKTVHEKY
Summary of the method: as §1

[1] = system: IL4-induced phospho STAT6 formation in Ramos B lymphocytes; experiment: Inhibition of IL4-induced phospho STAT6 formation in Ramos B lymphocytes (flow cytometry); type: cell-based, human; details: for inhibition at 0.2 µM / inhibition at 1 µM: Homo sapiens; for inhibition at 0.2 µM: read-out: % Inhibition of IL-4 Induced STAT6 Phosphorylation 200 nM; for inhibition at 1 µM: read-out: % Inhibition of IL-4 Induced STAT6 Phosphorylation 1 μM
From the text: Similar types of assays can be used to assess JAK inhibitory activity and to determine the degree of selectivity of the particular compound as compared to syk. One means of assaying for such inhibition is detection of the effect of the compounds of the present invention on the upregulation of downstream gene products. In the Ramos/IL4 assay, B-cells are stimulated with the cytokine Interleukin-4 (IL-4) leading to the activation of the JAK/Stat pathway through phosphorylation of the JAK family kinases, JAK1 and JAK3, which in turn phosphorylate and activate the transcription factor Stat-6. […] To study the effect of inhibitors (e.g., the 2,4-substituted pyrimindinediamine compounds described herein) on the JAK1 and JAK3, human Ramos B-cells are stimulated with human IL-4. 10′ post-stimulation, cells are subjected to intracellular flow cytometry to measure the extent of STAT-6 phosphorylation. 20 to 24 hours post-stimulation, cells are stained for upregulation of CD23 and analyzed using flow cytometry.
Inhibition of IL4-induced phospho STAT6 formation was measured by pre-incubating 0.5 million Ramos B lymphocytes (ATCC) with 5 μl compound or DMSO vehicle for 1 hour at 37° C./5% CO2. Cells were activated by addition of 1 ng/ml [f]IL4 (R & D Research Systems) for 10 min at 37° C./5% CO2 and then fixed by addition of 1.6% [f]PFA (Electron Microscopy Services). Following a PBS wash step and permaeabilization with 100% methanol, cells were incubated with ALEXA-conjugated anti-phosphoSTAT6 (Y641) antibody (BD 612600). The extent of cell associated-fluorescence was determined by flow cytomentry and data expressed as mean fluorescent intensity. The extent of inhibition of the IL4-induced signal was then calculated.

JAK2 = molecular target: T3, JAK2 (Homo sapiens, UniProt O60674); experiment: Z'-LYTE kinase assay, JAK2 tyrosine phosphorylation activity; type: biochemical
T3 construct: 5 μl of catalytic domain recombinant Kinase enzyme+Tyr peptide substrate (Invitrogen, Calif.); purchased Invitrogen
T3 sequence (O60674 849-1124 limits assumed): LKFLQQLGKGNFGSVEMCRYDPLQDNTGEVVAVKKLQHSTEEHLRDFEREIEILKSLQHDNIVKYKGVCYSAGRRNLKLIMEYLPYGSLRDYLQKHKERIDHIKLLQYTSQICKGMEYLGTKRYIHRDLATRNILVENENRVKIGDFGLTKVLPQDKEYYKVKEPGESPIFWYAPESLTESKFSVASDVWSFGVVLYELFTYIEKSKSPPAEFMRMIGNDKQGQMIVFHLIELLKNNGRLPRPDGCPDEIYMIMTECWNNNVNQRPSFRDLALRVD
Summary of the method: as §1

JAK1 = molecular target: T4, JAK1 (Homo sapiens, UniProt P23458); experiment: Z'-LYTE kinase assay, JAK1 tyrosine phosphorylation activity; type: biochemical; details: read-out: JAK 1 IC50
T4 construct: 5 μl of catalytic domain recombinant Kinase enzyme+Tyr peptide substrate (Invitrogen, Calif.); purchased Invitrogen
T4 sequence (P23458 875-1153 limits assumed): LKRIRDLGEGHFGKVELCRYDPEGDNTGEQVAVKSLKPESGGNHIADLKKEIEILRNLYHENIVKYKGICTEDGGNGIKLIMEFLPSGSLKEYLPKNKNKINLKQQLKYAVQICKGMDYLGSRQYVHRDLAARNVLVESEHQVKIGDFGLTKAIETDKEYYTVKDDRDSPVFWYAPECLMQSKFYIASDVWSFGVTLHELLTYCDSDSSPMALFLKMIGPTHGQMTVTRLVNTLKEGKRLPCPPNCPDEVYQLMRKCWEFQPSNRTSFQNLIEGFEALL
Summary of the method: as §1

T1 sequence (P52333 822-1111 limits assumed): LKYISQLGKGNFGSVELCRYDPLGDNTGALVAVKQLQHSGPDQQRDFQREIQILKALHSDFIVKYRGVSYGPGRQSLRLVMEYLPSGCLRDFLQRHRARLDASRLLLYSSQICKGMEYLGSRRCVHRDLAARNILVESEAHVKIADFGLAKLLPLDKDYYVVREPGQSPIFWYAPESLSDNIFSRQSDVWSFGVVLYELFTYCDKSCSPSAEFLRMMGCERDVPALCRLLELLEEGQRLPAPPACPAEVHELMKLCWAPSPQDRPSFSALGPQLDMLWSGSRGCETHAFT

| Compound | pIC50 (JAK3) | pIC50 (TYK2) | % Inhibition of IL-4 Induced STAT6 Phosphorylation 200 nM ([1]; 200 nM compound) | % Inhibition of IL-4 Induced STAT6 Phosphorylation 1 μM ([1]; 1 μM compound) | pIC50 (JAK2) | pIC50 (JAK1) | inhibition at 0.2 µM ([1]; 200 nM compound) | inhibition at 1 µM ([1]; 1 μM compound) |
| --- | --- | --- | --- | --- | --- | --- | --- | --- |
| 2-(3-(azetidine-1-carboxamido)phenylamino)-4-(benzylamino)pyrimidine-5-carboxamide [Example 219] | 8.00 to 9.00 | 7.00 to 8.00 | 19.0% | 65.3% | 7.00 to 8.00 | 7.00 to 8.00 |  |  |
| CC(=O)Nc1cccc(Nc2ncc(C(N)=O)c(NCc3ccccc3F)n2)c1 [Example 100, 2-(3-acetamidophenylamino)-4-(2-fluorobenzylamino)pyrimidine-5-carboxamide] | 8.00 to 9.00 | 8.00 to 9.00 |  |  | 7.00 to 8.00 | 7.00 to 8.00 | 43.5% | 95.3% |
| COCC(=O)Nc1cc(Nc2ncc(C(N)=O)c(NCc3ccccc3)n2)ccc1Cl [Example 106, 4-(benzylamino)-2-(4-chloro-3-(2-methoxyacetamido)phenylamino)pyrimidine-5-carboxamide] | 7.00 to 8.00 | 7.00 to 8.00 |  |  | 6.00 to 7.00 | 6.00 to 7.00 | 16.8% | 27.8% |
| CC(=O)Nc1cc(Nc2ncc(C(N)=O)c(N[C@H](C)c3ccccc3)n2)ccc1Cl [Example 108, (R)-2-(3-acetamido-4-chlorophenylamino)-4-(1-phenylethylamino)pyrimidine-5-carboxamide] | 8.00 to 9.00 | 7.00 to 8.00 |  |  | 7.00 to 8.00 | 6.00 to 7.00 | 21.3% | 70% |
| C[C@@H](Nc1nc(Nc2ccc(Cl)c(NC(=O)C3CC3)c2)ncc1C(N)=O)c1ccccc1 [Example 110, (R)-2-(4-chloro-3-(cyclopropanecarboxamido)phenylamino)-4-(1-phenylethylamino)pyrimidine-5-carboxamide] | 7.00 to 8.00 | 6.00 to 7.00 |  |  | 6.00 to 7.00 | 6.00 to 7.00 | 48.3% | 97.7% |
| CNC(=O)Nc1cc(Nc2ncc(C(N)=O)c(N[C@H](C)c3ccccc3)n2)ccc1Cl [Example 132, (R)-2-(4-chloro-3-(3-methylureido)phenylamino)-4-(1-phenylethylamino)pyrimidine-5-carboxamide] | 7.00 to 8.00 | 6.00 to 7.00 |  |  | 6.00 to 7.00 | 6.00 to 7.00 | 7.5% | 53.7% |
| CCCCNc1nc(Nc2cccc(NC(=O)N3CCCC3)c2)ncc1C(N)=O [Example 135, 4-(butylamino)-2-(3-(pyrrolidine-1-carboxamido)phenylamino)pyrimidine-5-carboxamide] | 8.00 to 9.00 | 8.00 to 9.00 |  |  | 7.00 to 8.00 | 7.00 to 8.00 | 42.3% | 89.7% |
| C[C@@H](Nc1nc(Nc2cccc(NC(=O)N3CCC[C@@H]3C)c2)ncc1C(N)=O)c1ccccc1 [Example 137, 2-(3-((S)-2-methylpyrrolidine-1-carboxamido)phenylamino)-4-((R)-1-phenylethylamino)pyrimidine-5-carboxamide] | 8.00 to 9.00 | 7.00 to 8.00 |  |  | 7.00 to 8.00 | 6.00 to 7.00 | 14.7% | 57.3% |
| C[C@H]1CCCN1C(=O)Nc1cccc(Nc2ncc(C(N)=O)c(NCc3ccccc3)n2)c1 [Example 139, (S)-4-(benzylamino)-2-(3-(2-methylpyrrolidine-1-carboxamido)phenylamino)pyrimidine-5-carboxamide] | 8.00 to 9.00 | 8.00 to 9.00 |  |  | 7.00 to 8.00 | 7.00 to 8.00 | 25.3% | 74.3% |
| COC[C@@H]1CCCN1C(=O)Nc1cccc(Nc2ncc(C(N)=O)c(NCc3ccccc3)n2)c1 [Example 140, (S)-4-(benzylamino)-2-(3-(2-(methoxymethyl)pyrrolidine-1-carboxamido)phenylamino)pyrimidine-5-carboxamide] | 8.00 to 9.00 | 8.00 to 9.00 |  |  | 7.00 to 8.00 | 7.00 to 8.00 | 21.7% | 69% |
| NC(=O)c1cnc(Nc2cccc(NC(=O)N3CCCC3)c2)cc1NCc1ccccc1 [Example 326, 4-(benzylamino)-6-(3-(pyrrolidine-1-carboxamido)phenylamino)nicotinamide] | 8.00 to 9.00 | 7.00 to 8.00 |  |  | 6.00 to 7.00 | 6.00 to 7.00 |  |  |
| CC(=O)Nc1cccc(Nc2cc(NCCC(C)C)c(C(N)=O)cn2)c1 [Example 327, 6-(3-acetamidophenylamino)-4-(isopentylamino)nicotinamide] | 7.00 to 8.00 | 7.00 to 8.00 |  |  | 6.00 to 7.00 | 6.00 to 7.00 |  |  |
| CC(C)CCNc1cc(Nc2cccc(NC(=O)N3CCCC3)c2)ncc1C(N)=O [Example 328, 4-(isopentylamino)-6-(3-(pyrrolidine-1-carboxamido)phenylamino)nicotinamide] | 7.00 to 8.00 | 7.00 to 8.00 |  |  | 6.00 to 7.00 | 6.00 to 7.00 |  |  |
| CC(=O)Nc1cccc(Nc2cc(NCC3CC3)c(C(N)=O)cn2)c1 [Example 329, 6-(3-acetamidophenylamino)-4-(cyclopropylmethylamino)nicotinamide] | 6.00 to 7.00 | 6.00 to 7.00 |  |  | 6.00 to 7.00 | < 6.00 |  |  |
| CC(=O)Nc1cccc(Nc2cc(NC3CCCC3)c(C(N)=O)cn2)c1 [Example 330, 6-(3-acetamidophenylamino)-4-(cyclopentylamino)nicotinamide] | 6.00 to 7.00 | 7.00 to 8.00 |  |  | 6.00 to 7.00 | 6.00 to 7.00 |  |  |
| CC(=O)Nc1cccc(Nc2cc(NCC3CCC3)c(C(N)=O)cn2)c1 [Example 331, 6-(3-acetamidophenylamino)-4-(cyclobutylmethylamino)nicotinamide] | 7.00 to 8.00 | 7.00 to 8.00 |  |  | 6.00 to 7.00 | 6.00 to 7.00 |  |  |
| CC(=O)Nc1cccc(Nc2cc(NCc3ccc(F)cc3)c(C(N)=O)cn2)c1 [Example 332, 6-(3-acetamidophenylamino)-4-(4-fluorobenzylamino)nicotinamide] | 6.00 to 7.00 | < 6.00 |  |  | 6.00 to 7.00 | < 6.00 |  |  |
| CC(=O)Nc1cccc(Nc2cc(NC3Cc4ccccc4C3)c(C(N)=O)cn2)c1 [Example 333, 6-(3-acetamidophenylamino)-4-(2,3-dihydro-1H-inden-2-ylamino)nicotinamide] | 6.00 to 7.00 | 6.00 to 7.00 |  |  | < 6.00 | < 6.00 |  |  |
| CC(=O)Nc1cccc(Nc2cc(NCc3ccc4c(c3)OCO4)c(C(N)=O)cn2)c1 [Example 334, 6-(3-acetamidophenylamino)-4-(benzo[d][1,3]dioxol-5-ylmethylamino)nicotinamide] | 6.00 to 7.00 | < 6.00 |  |  | < 6.00 | < 6.00 |  |  |
| CC(=O)Nc1cccc(Nc2cc(N[C@H]3CCc4ccccc43)c(C(N)=O)cn2)c1 [Example 335, (S)-6-(3-acetamidophenylamino)-4-(2,3-dihydro-1H-inden-1-ylamino)nicotinamide] | 7.00 to 8.00 | 7.00 to 8.00 |  |  | < 6.00 | 6.00 to 7.00 |  |  |
| CC(=O)Nc1cccc(Nc2cc(NCc3cccc(F)c3F)c(C(N)=O)cn2)c1 [Example 336, 6-(3-acetamidophenylamino)-4-(2,3-difluorobenzylamino)nicotinamide] | 8.00 to 9.00 | 6.00 to 7.00 |  |  | 6.00 to 7.00 | 6.00 to 7.00 |  |  |
| CC(=O)Nc1cccc(Nc2cc(NCc3cccc(Cl)c3)c(C(N)=O)cn2)c1 [Example 337, 6-(3-acetamidophenylamino)-4-(3-chlorobenzylamino)nicotinamide] | 7.00 to 8.00 | 6.00 to 7.00 |  |  | 6.00 to 7.00 | 6.00 to 7.00 |  |  |
| CC(=O)Nc1cccc(Nc2cc(NCCc3ccccc3)c(C(N)=O)cn2)c1 [Example 338, 6-(3-acetamidophenylamino)-4-(phenethylamino)nicotinamide] | 6.00 to 7.00 | 6.00 to 7.00 |  |  | < 6.00 | < 6.00 |  |  |
